Measurements published in patent US20210380948A1, “METHOD TO ALTER CHINESE HAMSTER OVARY CELL LINE STABILITY” (University of Delaware, priority 2018, published 2021).

B1: LIG4: heterologous DSB repair protein DNA ligase IV, CH- or CHO-version, expressed from plasmid in CHO-K1 cells (protein, UniProt G3GTP0 1-912, looked up)
DNA ligase 4: MATSQTSQTVAAHVPFADLCSTLERIQKSKERAEKIRHFKEFLDSWRKFHDALHKNKKDVTDSFYPAMRLILPQLERERMAYGIKETMLAKLYIELLNLPREGKDALKLLNYRTPSGARTDAGDFAVIAYFVLKPRCLQKGSLTIQQVNELLDLVASNNSGKRKDLVKKSLLQLITQSSALEQKWLIRMIIKDLKLGVSQQTILNIFHNDAVELHNVTTDLEKVCRQLHDPAVGLSDISITLFSAFKPMLAAVADVERVEKDMKQQSFYIETKLDGERMQMHKDGSVYQYFSRNGYNYTDQFGASPQEGTLTPFIHDAFRTDVQVCILDGEMMAYNPTTQTFMQKGVKFDIKRMVEDSDLQTCYCVFDVLMVNNKKLGRETLRKRYDILNSTFTPIQGRIEIVQKKLAQTKNEVVDALNEAIDKREEGIMIKHPLSIYKPDKRGEGWLKIKPEYVSGLMDELDLLIVGGYWGKGSRGGMMSHFLCAVAEKPPHGEKPSVFHTLCRVGSGYTMKELYDLGLKLAKYWKPFHKKSPPSSILCGTEKPEVYIEPCNSVIVQIKAAEIVPSDMYKTGTTLRFPRIEKIRDDKEWHECMTLGDLEELRGKASGKLATKHLHVGDDDEPREKRRKPVSKMKKTIGIIEHLKAPNLSNISKVSNVFEDVEFCVMSGLDGYPKSDLENRIAEFGGYIVQNPGPDTYCVIAGCENIRVKNIISSDQHDVVKPEWLLECFKTKTCVPWQPRFMIHMCPSTKQHFAREYDCYGDSYFVDTDLDQLKEVFLGIKKAGEHQTPEEMAPVIADLEYRYSWDHSPLCMFRHCTVYLDLYAVINDSSSKIKATRLDVTALELRFHGAKVVSHLSEGVSHVIIGENQSRVSDFKVFRRTLKKKFKILQERWVTDSVDKGELQEENQYLL

Tests used:
[1] = tested on: BHK-21 hamster fibroblast; assay: γH2AX foci count after bleomycin DSB induction, BHK-21; format: cell-based; settings: for Induced DSB number: one-hour treatment
Description: [The source words this procedure for another cell line and reports this cell line under the same test.] (§1) CHO-K1, bEnd.3 or transfected CHO-K1 cells were seeded in chambers of an 8-well chambered cover glass (Cellvis, Mountain View, Calif.) at 2×10^5 cells/mL with 0.5 mL culture media. After 24-hour incubation, cells were treated with 10 μg/mL bleomycin (Sigma-Aldrich, St. Louis, Mo.) for 1 or 12 hours or with 50 μg/mL for 1 hour, followed by immediate media change with fresh warm culture media. After indicated hours of incubation in fresh media, the treated cells were washed three times with Tris buffered saline (TBS), fixed with 4% paraformaldehyde in TBS for 15 min, washed three times with TBS, permeabilized with 0.1% Triton-X100 (Sigma-Aldrich, St. Louis, Mo.) in TBS for 5 min, and washed three times with TBS. Cells were then blocked in TBS containing 3% goat serum (Sigma-Aldrich, St. Louis, Mo.) for 1 hour, incubated with 1:500 primary antibody (anti-phosphorylated γH2AX antibody, EMD Millipore, Billerica, Mass.) at 4° C. overnight, washed three times with TBS, and incubated with 1:1000 Alexa Fluor 488-conjugated secondary antibody (anti-mouse IgG antibody, Life Technologies, Carlsbad, Calif.) for 1 hour at room temperature. After three TBS washes, nuclei were stained with 4′,6-diamidino-2-phenylindole (DAPI, Invitrogen, Carlsbad, Calif.) for 15 min and again washed three times with TBS. Images were taken using a LSM 710 confocal microscope (Carl Zeiss, Thornwood, N.Y.) with a 63× objective. At least 50 cells and foci were counted per cell sample in duplicate cultures using software ImageJ.

CHO-K1 cells [2] = assay: γH2AX foci count after bleomycin DSB induction, CHO-K1; format: cell-based, Chinese hamster; settings: for Induced DSB number: one-hour treatment
Description: as §1

[3] = tested on: bEnd.3 mouse endothelial cells; assay: γH2AX foci count after bleomycin DSB induction, bEnd.3; format: cell-based; settings: for Induced DSB number: one-hour treatment
Description: as §1

CHO-K1 cells [4] = assay: γH2AX foci count in CHO-K1 cells transiently expressing DSB repair genes after bleomycin treatment; format: cell-based, Chinese hamster; settings: CH-version gene transiently expressed; 12-hour 10 μg/mL bleomycin; FIG. 3
Source text: To clone eight DSB repair genes, total mRNA from CHO-K1 cells or Chinese hamster liver tissue was extracted using Qiagen RNeasy Mini kit and reverse-transcribed into cDNA to be used as templates to generate gene fragments by PCR. FBXO18 gene and partial sequences of RNF8 and LIG4 genes were synthesized as gBlocks Gene Fragments (Integrated DNA Technologies, Coralville, Iowa). A vector fragment was obtained by PCR amplification from plasmid pcDNA3.1/zeo(+) (Thermo Fisher, Waltham, Mass.). Plasmids expressing DSB repair genes were constructed via Gibson assembly of gene fragment(s) and the vector fragment following the manufacturer's instruction (New England Biolabs, Ipswich, Mass.).
CHO-K1, BHK-21 hamster fibroblast (ATCC, Manassas, Va.) and bEnd.3 mouse endothelial cells (ATCC, Manassas, Va.) were cultured in 5 mL Iscove's Modified Dulbecco's Medium (IMDM, Hyclone Laboratories Inc., Logan, Utah) supplemented with 10% fetal bovine serum (FBS, Hyclone Laboratories Inc., Logan, Utah) in T-25 culture flasks (Corning Inc., Corning, N.Y.) at 37° C. and 5% CO2. […]
CHO-K1, bEnd.3 or transfected CHO-K1 cells were seeded in chambers of an 8-well chambered cover glass (Cellvis, Mountain View, Calif.) at 2×10^5 cells/mL with 0.5 mL culture media. […] At least 50 cells and foci were counted per cell sample in duplicate cultures using software ImageJ.

Molecule	Induced DSB number ([1]; BHK-21, BL 10 μg/mL)	Induced DSB number ([1]; BHK-21, BL 50 μg/mL)	Repair rate ([1]; BHK-21, after BL 10 μg/mL one-hour treatment) [DSB/hour]	Repair rate ([1]; BHK-21, after BL 50 μg/mL one-hour treatment) [DSB/hour]	DSB repair rate after removing bleomycin ([1]; BHK-21 cells, 12-hour treatment with 10 μg/mL bleomycin) [DSB per hour]	DSB repair rate after removing bleomycin (CHO-K1 cells [2]; CHO cells, 12-hour treatment with 10 μg/mL bleomycin) [DSB per hour]	Induced DSB number (CHO-K1 cells [2]; CHO-K1, BL 10 μg/mL)	Induced DSB number (CHO-K1 cells [2]; CHO-K1, BL 50 μg/mL)	Repair rate (CHO-K1 cells [2]; CHO-K1, after BL 10 μg/mL one-hour treatment) [DSB/hour]	Repair rate (CHO-K1 cells [2]; CHO-K1, after BL 50 μg/mL one-hour treatment) [DSB/hour]	DSB repair rate after removing bleomycin ([3]; bEnd.3 cells, 12-hour treatment with 10 μg/mL bleomycin) [DSB per hour]	Induced DSB number ([3]; bEnd.3, BL 10 μg/mL)	Induced DSB number ([3]; bEnd.3, BL 50 μg/mL)	Repair rate ([3]; bEnd.3, after BL 10 μg/mL one-hour treatment) [DSB/hour]	Repair rate ([3]; bEnd.3, after BL 50 μg/mL one-hour treatment) [DSB/hour]	DSB level at one hour after bleomycin removal versus control CHO-K1 cells (CHO-K1 cells [4])	DSB repair within 24 hours after bleomycin removal versus control CHO-K1 cells (CHO-K1 cells [4])
bleomycin	13	20	1.8	2.3	2.64	0.89	6	13	0.9	1.7	1.03	14	21	2.2	3.2	–	–
B1	–	–	–	–	–	–	–	–	–	–	–	–	–	–	–	lower DSB level	significantly improved DSB repair
